For assay [1], the system named is SKOV-3 human ovary adenocarcinoma cells. Put plainly: Cytotoxicity (MTT growth inhibition) in SKOV-3. The format is cell-based. As to conditions: SK-OV-3, 1 h incubation, wash, then 6 days at 37 °C without drug, 128 pM to 10 μM, performed twice in triplicate. The method, then: (§1) Growth inhibition was assessed by 3-(4,5-dimethylthiazol-2-yl)-2,5-diphenyltetrazolium bromide (MTT). […] The experiment was performed twice in triplicate.
(§2) EC50 values were calculated by non-linear regression analysis using Graph Pad Prism 5.03 software.

For assay [2], the system named is MDA-MB 231 human breast adenocarcinoma cells. The assay is described as follows: Cytotoxicity (MTT growth inhibition) in MDA-MB 231. The class given is cell-based. The following applies: 1 h incubation, wash, then 6 days at 37 °C without drug, 128 pM to 10 μM, performed twice in triplicate. The method, then: as §1, §2
Assay [3] deals with orthotopic MDA-MB 231-luc2 tumors. The assay is described as follows: Tumor growth in orthotopic MDA-MB 231-luc2 mouse model. The format is in vivo, athymic nude mice. The following applies: 2.86 μmol/Kg i.v. every 4 days.
Description: MDA-MB 231-luc2 cells were injected orthotopically in the mammary fat pads of female athymic nude mice. […] Tumor growth was monitored by measuring volumes every 4 days with a caliber rule and by imaging luciferase reporter expression in tumor cells with a Photon Imager system at 8-day intervals.
Orthotopic breast tumors were established by injecting 1 × 10^6 MDA-MB 231-luc2 cells into the fourth mammary fat pad of athymic nude mice (Harlan Laboratories). Tumor growth was monitored every four days by measuring two perpendicular diameters with caliber. Tumor volume (V) was calculated by the following equation: V = (a^2 × b)/2, where “a” is the width of the tumor (small diameter), and b the length (large diameter), both in millimeters[22].
Treatments were started when the tumors reached at least 80 mm^3 in volume.
Tumor growth was also monitored by imaging luciferase reporter expression in tumor cells. To track MDA-MB 231-luc2 cells, bioluminescent optical imaging was performed using a Photon Imager system (Biospace Lab, Paris, France) including a cooled charge-coupled device (CCD) camera. Prior to imaging, mice were anaesthetized by intraperitoneal (i.p.) injection of 275 mg/kg Avertin. […] Bioluminescence was quantified by automatic measurement. ROI optical images were analyzed with M3 Vision software (Biospace Lab, Paris, France).

Regarding `CC(=O)O[C@H]1C(=O)[C@@]2(C)[C@H]([C@H](OC(=O)c3ccccc3)[C@]3(O)C[C@H](OC(=O)[C@H](O)[C@@H](NC(=O)c4ccccc4)c4ccccc4)C(C)=C1C3(C)C)[C@]1(OC(C)=O)CO[C@@H]1C[C@@H]2O` [PTX, Paclitaxel], the EC50 in assay [1] was 29 nM; in assay [2], 62 nM. In assay [3] (days 4, 8, 12 and 16, n = 5 mice), the “Slope of average tumor volume (percentage of the volume at day 4) versus time” value was found to be 5.5. In addition, the “Effect on tumor growth (in words)” value in assay [3] (during treatment, days 4 to 16) was “clear reduction in tumor growth with respect to controls, but not tumor regression”.

As a reminder, the EC50 is the concentration giving half of the maximal effect. A low value points to a more potent agent.

The values are drawn from article PMC4667195, “Tumor-selective peptide-carrier delivery of Paclitaxel increases in vivo activity of the drug” (Scientific Reports, 2015).
